ChEMBL document CHEMBL5357023, “Synthesis and Evaluation of Benzylamine Inhibitors of Neuropathogenic Naegleria fowleri "Brain-Eating" Amoeba” (ACS Med Chem Lett, 2024)
≈ marks a conversion by molar mass, not a printed value.

Key:
Naegleria fowleri [1] = test: Anti-ameobic activity against Naegleria fowleri NF69 ATCC 30215 assessed as growth inhibition incubated for 48 hrs relative to control; type: functional, organism-based; settings: for growth inhibition (GI): time 48 hrs
Naegleria fowleri [2] = test: Anti-ameobic activity against Naegleria fowleri NF69 ATCC 30215 incubated for 48 hrs; type: functional, organism-based; settings: NF69 ATCC 30215, 48 h
SH-SY5Y [3] = test: Cytotoxicity against human SH-SY5Y cells assessed as reduction in cell viability at 1 uM incubated for 72 hrs by celltiter glow assay; type: functional
SH-SY5Y [4] = test: Cytotoxicity against human SH-SY5Y cells assessed as reduction in cell viability at 20 uM incubated for 72 hrs by celltiter glow assay; type: functional
[5] = Permeability of compound incubated for 18 hrs by PAMPA assay; type: ADME; settings: read-out: permeability
SH-SY5Y [6] = test: Cytotoxicity against human SH-SY5Y cells assessed as reduction in cell viability incubated for 72 hrs by celltiter glow assay; type: functional
[7] = Lipophilicity, log D of the compound in octanol/phosphate buffer at pH 7.4 incubated for 2 mins by LC-MS analysis; type: physicochemical
[8] = Kinetic solubility of compound in phosphate buffer at pH 7.4 incubated for 24 hrs by HPLC analysis; type: physicochemical; settings: read-out: Kinetic_solubility
[9] = Microsomal stability in CD-1 mouse liver microsome assessed as half life preincubated for 60 mins followed by NADPH addition and measured after 60 mins by HPLC analysis; type: ADME; settings: liver microsomes, time 120 min
[10] = Stability in CD-1 mouse plasma assessed as parent compound remaining incubated for 20 mins by LC-MS analysis; type: ADME, cell-free; settings: read-out: Stability
[11] = Plasma protein binding in CD-1 mouse measured for 4 hrs by LC-MS/MS analysis; type: ADME, cell-free; settings: read-out: PPB (converted)

| Structure (SMILES) | EC50 (Naegleria fowleri [2]) [µM] | growth inhibition (GI) (Naegleria fowleri [1]) [%] | Activity (SH-SY5Y [3]) [%] | Cell viability remaining (SH-SY5Y [4]) [%] | other results |
| --- | --- | --- | --- | --- | --- |
| CC(C)(C)c1ccc(CNc2cncnc2C(=O)O)cc1 | > 10 |  |  |  |  |
| CC(C)(C)c1ncc(CNc2cc(Cl)cnc2C(=O)O)s1 | > 10 | 0 | 95 | 67 |  |
| CC(C)(C)c1ccc(CCNc2cc(Cl)cnc2C(=O)O)cc1 | 3.3 | 99.8 | 95 | 100 |  |
| CC(C)(C)c1ccc(C(=O)Nc2cc(Cl)cnc2C(=O)[O-])cc1.[Na+] |  |  |  | 61 | EC50 (Naegleria fowleri [1]; Naegleria fowleri, NF69 ATCC 30215, 48 h): > 10 µM |
| CC(C)(C)c1ccc(CNc2cc(Cl)c(Br)nc2C(=O)O)cc1 | > 10 | 17.6 | 100 | 100 |  |
| O=C(O)c1ncc(Cl)cc1NCc1ccc(F)cc1 | > 10 | 22.8 | 93 | 100 |  |
| O=C(O)c1ncc(Cl)cc1NCc1ccc(C(F)(F)F)cc1 | > 10 | 29.5 | 78 | 66 |  |
| CC(Nc1cc(Cl)cnc1C(=O)O)c1ccc(C(C)(C)C)cc1 (stereo unspecified) | > 10 | 38.2 | 98 | 100 |  |
| CC(C)(C)c1ccc(CNc2cc(Cl)c(-c3ccccc3)nc2C(=O)O)cc1 | > 10 | 20.4 | 100 | 82 |  |
| NC(=O)N1c2ccccc2C=Cc2ccccc21 [CARBAMAZEPINE] |  |  |  |  | Papp at 18 h [5]: 6.63 ×10⁻⁶ cm/s |
| CC(C)(C)c1ccc(S(=O)(=O)Nc2cc(Cl)cnc2C(=O)O)cc1 | > 10 | 16.5 | 100 | 100 |  |
| CC(C)(C)c1ccc(CNc2cc(Cl)cnc2C(N)=O)cc1 | > 10 | 27.7 | 100 | 77 |  |
| CC(C)(C)NCC(O)COc1cccc2c1CC(O)C(O)C2 (stereo unspecified) [NADOLOL] |  |  |  |  | Papp at 18 h [5]: < 0.01 ×10⁻⁶ cm/s |
| CC(C)(C)c1ccc(CNc2cc(Cl)ncc2C(=O)O)cc1 | > 10 |  |  |  |  |
| CC(C)(C)c1ccc(CNc2cc(Cl)cnc2C(=O)O)cc1 | 6 | 98.8 | 85 | 53 | CC50 (SH-SY5Y [6]): > 20 µM; logD at 2 min [7]: 2.3; solubility kinetic at 24 h [8]: 84 µM (≈ 26.8 µg/mL); half-life [9]: 38 min; remaining at 20 min [10]: 93%; fraction unbound at 4 h [11]: 0.009; Papp at 18 h [5]: 8.5 ×10⁻⁶ cm/s |
| CC(C)(C)c1ccc(CNc2cc(N3CCOCC3)cnc2C(=O)O)cc1 | 11.5 | 52.8 | 85 | 75 |  |
| CC(C)(C)c1ccc(CNc2scnc2C(=O)O)cc1 | > 10 |  |  |  |  |
| CC(C)(C)c1ccc(CC(=O)Nc2cc(Cl)cnc2C(=O)O)cc1 | > 10 | 9.9 | 76 | 19 |  |
| CC(C)(C)c1ccc(CNc2cccnc2C(=O)O)cc1 | 3 | 99.2 | 100 | 89 |  |
| O=C(O)c1ncc(Cl)cc1NCc1ccccc1 | > 10 | 0 | 95 | 95 |  |
| O=C(O)c1ncc(Cl)cc1NCCc1ccc(C(F)(F)F)cc1 | > 10 | 44.8 | 59 | 57 |  |
| Cc1cnc(C(=O)O)c(NCc2ccc(C(C)(C)C)cc2)c1 | 1.4 | 100.4 | 96 | 98 | CC50 (SH-SY5Y [6]): > 20 µM; logD at 2 min [7]: 2.4; solubility kinetic at 24 h [8]: 208 µM (≈ 62.1 µg/mL); half-life [9]: 49 min |
| CC(C)(C)c1ccc(Nc2cc(Cl)cnc2C(=O)O)cc1 | > 10 | 4.5 | 98 | 57 |  |
| CC(C)(C)c1ccc(CNc2cc(Br)cnc2C(=O)O)cc1 | 7.2 | 84.4 | 99 | 85 |  |
| CCCCCCCCCCCCCCCCOP(=O)([O-])OCC[N+](C)(C)C [MILTEFOSINE] | 35.7 |  |  |  |  |
| Cc1ccc(CNc2cc(Cl)cnc2C(=O)O)cc1 | > 10 | 0 | 100 | 94 |  |

More lines, main results first:

| EC50 (Naegleria fowleri [2]) [µM] | Structure (SMILES) | growth inhibition (GI) (Naegleria fowleri [1]) [%] | Activity (SH-SY5Y [3]) [%] | Cell viability remaining (SH-SY5Y [4]) [%] | other results |
| --- | --- | --- | --- | --- | --- |
| > 10 | COc1ccc(CCNc2cc(Cl)cnc2C(=O)O)cc1 | 12.9 | 95 | 71 |  |
| > 10 | CC(C)(C)c1ccc(CCc2cc(Cl)cnc2C(=O)O)cc1 | 0 | 100 | 85 |  |
| 5 | CC(C)(C)c1ccc(CNc2cc(-c3ccccc3)cnc2C(=O)O)cc1 | 99.3 | 100 | 81 |  |
| > 10 | COc1ccc(CNc2cc(Cl)cnc2C(=O)O)cc1 | 6.6 | 98 | 95 |  |
| > 10 | CC(C)(C)c1ccc(CNc2cc(Cl)cnc2C(=O)O)s1 | 0 | 95 | 90 |  |
| > 10 | CC(C)(C)c1ccc(CNc2cncc(Cl)c2)cc1 | 17.6 | 100 | 88 |  |
| 5 | CC(C)(C)c1ccc(CNc2cc(F)cnc2C(=O)O)cc1 | 99.5 | 91 | 73 |  |
| > 10 | CC(C)(C)c1ccc(CNc2cc(Cl)cnc2C#N)cc1 | 22.2 | 96 | 57 |  |
| 0.92 | COc1cnc(C(=O)O)c(NCc2ccc(C(C)(C)C)cc2)c1 | 100.3 | 98 | 100 | CC50 (SH-SY5Y [6]): > 20 µM; logD at 2 min [7]: 2.3; solubility kinetic at 24 h [8]: 199 µM (≈ 62.6 µg/mL); half-life [9]: 72 min; remaining at 20 min [10]: 92%; fraction unbound at 4 h [11]: 0.003; Papp at 18 h [5]: 9.69 ×10⁻⁶ cm/s |
| > 10 | CC(C)(C)c1ccc(CNc2cc(Cl)c(Cl)nc2C(=O)O)cc1 | 12.3 | 100 | 100 |  |
| 1.1 | COc1cnc(C(=O)O)c(NCCc2ccc(C(C)(C)C)cc2)c1 | 100.4 | 87 | 57 |  |
